The supplement of paper PMC4862054

Experiments:
Conditions in all cases: incubation time: 72 h
MDA-MB-453 [1] = assay: normalised viability (% of control), CellTiter-Blue; higher = more viable cells (about 100 = DMSO control)
Procedure: (§1)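 DSRT, CellTiter-Blue viability, 72 h incubation. Signal is normalised to DMSO and benzethonium chloride controls. Value is the normalised response at dose 6.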

CAL-51 [2] = assay: as above
Procedure: as §1

CAL-148 [3] = assay: as above
Procedure: as §1

CAL-85-1 [4] = assay: as above
Procedure: as §1

DU-4475 [5] = assay: as above
Procedure: as §1

HDQ-P1 [6] = assay: as above
Procedure: as §1

MDA-MB-453 [7] = assay: as above; remark: listed apart in the source
Procedure: (§2)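 DSRT, CellTiter-Blue viability, 72 h incubation. Signal is normalised to DMSO and benzethonium chloride controls. Value is the normalised response at dose 7.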

CAL-51 [8] = assay: as above; remark: listed apart in the source
Procedure: as §2

CAL-148 [9] = assay: as above; remark: listed apart in the source
Procedure: as §2

CAL-85-1 [10] = assay: as above; remark: listed apart in the source
Procedure: as §2

DU-4475 [11] = assay: as above; remark: listed apart in the source
Procedure: as §2

HDQ-P1 [12] = assay: as above; remark: listed apart in the source
Procedure: as §2

MDA-MB-436 = assay: normalised response (% of control), CellTiter-Glo; higher = more viable cells (100 = DMSO, 0 = benzethonium chloride kill control)
Method in brief: (§3)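 Values are normalised signals, each belonging to one concentration of the series. Breast cancer cells (20 µl suspension) were seeded into 384-well plates with compound at 5 concentrations in 10-fold steps over a compound-specific 10,000-fold range and incubated 72 h. Readouts were CellTox Green fluorescence (485/520 nm), then CellTiter-Glo luminescence after 10 min at room temperature, with each plate set to 0.1 % DMSO as 100 and a positive kill control as 0.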

MDA-MB-453 [13] = assay: as above
Method in brief: as §3

SK-BR-3 = assay: as above
Method in brief: as §3

MDA-MB-468 = assay: as above
Method in brief: as §3

CAL-51 [14] = assay: as above
Method in brief: as §3

HCC1937 = assay: as above
Method in brief: as §3

BT-549 = assay: as above
Method in brief: as §3

MCF-10A = assay: as above
Method in brief: as §3

CAL-148 [15] = assay: as above
Method in brief: as §3

HCC1143 = assay: as above
Method in brief: as §3

MFM-223 = assay: as above
Method in brief: as §3

CAL-85-1 [16] = assay: as above
Method in brief: as §3

DU-4475 [17] = assay: as above
Method in brief: as §3

HCC1599 = assay: as above
Method in brief: as §3

HDQ-P1 [18] = assay: as above
Method in brief: as §3

Hs578T = assay: as above
Method in brief: as §3

BT-474 = assay: as above
Method in brief: as §3

MDA-MB-231 = assay: as above
Method in brief: as §3

CAL-120 = assay: as above
Method in brief: as §3

## CC(=O)O[C@H]1C(=O)[C@@]2(C)[C@H]([C@H](OC(=O)c3ccccc3)[C@]3(O)C[C@H](OC(=O)[C@H](O)[C@@H](NC(=O)c4ccccc4)c4ccccc4)C(C)=C1C3(C)C)[C@]1(OC(C)=O)CO[C@@H]1C[C@@H]2O [Paclitaxel] (30 nM)
MDA-MB-453 [1]
  normalised viability: 26.1%
CAL-51 [2]
  normalised viability: 38.8%
CAL-148 [3]
  normalised viability: 20.8%
CAL-85-1 [4]
  normalised viability: 32.6%
DU-4475 [5]
  normalised viability: 39.6%
HDQ-P1 [6]
  normalised viability: 33.7%

## CC(C)(C)c1cc(NC(=O)Nc2ccc(-c3cn4c(n3)sc3cc(OCCN5CCOCC5)ccc34)cc2)no1 [Quizartinib] (30 nM)
MDA-MB-453 [1]
  normalised viability: 102%
CAL-51 [2]
  normalised viability: 101%
CAL-148 [3]
  normalised viability: 103%
CAL-85-1 [4]
  normalised viability: 97.2%
DU-4475 [5]
  normalised viability: 109%
HDQ-P1 [6]
  normalised viability: 53.4%

## COc1cc(Nc2ncc(F)c(Nc3ccc4c(n3)NC(=O)C(C)(C)O4)n2)cc(OC)c1OC [R406] (300 nM)
MDA-MB-453 [1]
  normalised viability: 109%
CAL-51 [2]
  normalised viability: 114%
CAL-148 [3]
  normalised viability: 108%
CAL-85-1 [4]
  normalised viability: 98.3%
DU-4475 [5]
  normalised viability: 87.5%
HDQ-P1 [6]
  normalised viability: 102%

## COc1cc(Nc2ncc(F)c(Nc3ccc4c(n3)NC(=O)C(C)(C)O4)n2)cc(OC)c1OC [R406] (1000 nM)
MDA-MB-453 [7]
  normalised viability: 96.4%
CAL-51 [8]
  normalised viability: 112%
CAL-148 [9]
  normalised viability: 97.2%
CAL-85-1 [10]
  normalised viability: 84.7%
DU-4475 [11]
  normalised viability: 105%
HDQ-P1 [12]
  normalised viability: 103%

## O=C(c1ccc(OCCN2CCCCC2)cc1)c1c(-c2ccc(O)cc2)sc2cc(O)ccc12 [Raloxifene] (300 nM)
MDA-MB-453 [1]
  normalised viability: 102%
CAL-51 [2]
  normalised viability: 100%
CAL-148 [3]
  normalised viability: 102%
CAL-85-1 [4]
  normalised viability: 105%
DU-4475 [5]
  normalised viability: 114%
HDQ-P1 [6]
  normalised viability: 84.6%

## Cn1c(=O)c(F)c(Nc2ccc(I)cc2F)c2c(=O)n(C[C@@H](O)CO)cnc21 [TAK-733] (30 nM)
MDA-MB-453 [1]
  normalised viability: 112%
CAL-51 [2]
  normalised viability: 89.7%
CAL-148 [3]
  normalised viability: 98.7%
CAL-85-1 [4]
  normalised viability: 84.5%
DU-4475 [5]
  normalised viability: 1.81%
HDQ-P1 [6]
  normalised viability: 77.7%

## CCS(=O)(=O)c1cccc(-c2cc(C(=O)NC3CCN(C)CC3)c(C)c3[nH]c4ncc(C)cc4c23)c1 [TAK-901] (30 nM)
MDA-MB-453 [1]
  normalised viability: 55.5%
CAL-51 [2]
  normalised viability: 78.1%
CAL-148 [3]
  normalised viability: 42.2%
CAL-85-1 [4]
  normalised viability: 79.4%
DU-4475 [5]
  normalised viability: 90.6%
HDQ-P1 [6]
  normalised viability: 96.5%

## c1ccc(C2CN3CCSC3=N2)cc1 (stereo not given) [Tetramisole] (300 nM)
MDA-MB-453 [1]
  normalised viability: 103%
CAL-51 [2]
  normalised viability: 93.3%
CAL-148 [3]
  normalised viability: 102%
CAL-85-1 [4]
  normalised viability: 102%
DU-4475 [5]
  normalised viability: 98.6%
HDQ-P1 [6]
  normalised viability: 129%

## c1ccc(C2CN3CCSC3=N2)cc1 (stereo not given) [Tetramisole] (1000 nM)
MDA-MB-453 [7]
  normalised viability: 108%
CAL-51 [8]
  normalised viability: 90.2%
CAL-148 [9]
  normalised viability: 131%
CAL-85-1 [10]
  normalised viability: 98.7%
DU-4475 [11]
  normalised viability: 74%
HDQ-P1 [12]
  normalised viability: 109%

## CCCC(CCC)C(=O)O [Valproic acid] (300 nM)
MDA-MB-453 [1]
  normalised viability: 103%
CAL-51 [2]
  normalised viability: 103%
CAL-148 [3]
  normalised viability: 103%
CAL-85-1 [4]
  normalised viability: 90%
DU-4475 [5]
  normalised viability: 83.7%
HDQ-P1 [6]
  normalised viability: 112%

## CCCC(CCC)C(=O)O [Valproic acid] (1000 nM)
MDA-MB-436
  normalised response: 95.6%
MDA-MB-453 [13]
  normalised response: 111%
SK-BR-3
  normalised response: 92.3%
MDA-MB-468
  normalised response: 93.8%
CAL-51 [14]
  normalised response: 70.3%
HCC1937
  normalised response: 99.5%
BT-549
  normalised response: 99.8%
MCF-10A
  normalised response: 98.7%
CAL-148 [15]
  normalised response: 96.2%
HCC1143
  normalised response: 103%
MFM-223
  normalised response: 94.5%
CAL-85-1 [16]
  normalised response: 93.9%
DU-4475 [17]
  normalised response: 94.9%
HCC1599
  normalised response: 31.2%
HDQ-P1 [18]
  normalised response: 103%
Hs578T
  normalised response: 103%
BT-474
  normalised response: 103%
MDA-MB-231
  normalised response: 101%
CAL-120
  normalised response: 99.9%
MDA-MB-453 [7]
  normalised viability: 116%
CAL-51 [8]
  normalised viability: 89.1%
CAL-148 [9]
  normalised viability: 88.8%
CAL-85-1 [10]
  normalised viability: 90.6%
DU-4475 [11]
  normalised viability: 94.8%
HDQ-P1 [12]
  normalised viability: 112%
